The source of these data is PubChem BioAssay (NCI).

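Tested at 5 concentrations; 48 h exposure; 96-well plates; endpoints linearly interpolated, else capped at highest concentration. Here, GI50 denotes the concentration required for 50% inhibition of growth. TGI: concentration producing complete growth inhibition.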 Where only a bound is given, the exact number is not on record here.

Some test systems named below: SNB-78 CNS; SR leukemia; DLD-1 colon; HOP-18 NSCLC; M19-MEL melanoma; BT-549 breast; MDA-N; SN12K1 renal; P388/ADR leukemia.
Common to all, as to assay: NCI tumour cell line growth inhibition, 48 h

With `N#C[S-].[La+3].c1ccc(-c2ccccn2)nc1.c1ccc(-c2ccccn2)nc1.c1ccc(-c2ccccn2)nc1`, the GI50 was 59.4 µM in the assay on SNB-78 CNS; 34.2 µM in the assay on SR leukemia; 17.2 µM in the assay on DLD-1 colon; 27.1 µM in the assay on HOP-18 NSCLC; 38 µM in the assay on M19-MEL melanoma. Besides, the TGI in the assay on SNB-78 CNS, in the assay on SR leukemia, in the assay with DLD-1 colon, with HOP-18 NSCLC and with M19-MEL melanoma was over 100 µM each time.

Consider `Clc1cc(N/N=C(\c2ccccc2)c2ccccn2)ncn1`, for which the TGI in the assay on BT-549 breast is over 100 µM; in the assay on SR leukemia, 3.08 µM; in the assay on MDA-N, over 100 µM.

With `Brc1ccc2[nH]c3c(C4=NCCC4)nccc3c2c1`, the TGI in the assay on SNB-78 CNS was over 100 µM; with SN12K1 renal, over 25.7 µM; with DLD-1 colon it was over 43.4 µM; with P388/ADR leukemia, over 23.8 µM; in the assay with HOP-18 NSCLC, over 85.8 µM; in the assay on M19-MEL melanoma, 84.4 µM.

`CC1OC(OC2C(O)CC(OC3C(O)CC(OC4CCC5(C)C(CCC6C5CCC5(C)C(C7=CC(=O)OC7)C(O)CC65O)C4)OC3C)OC2C)CC(O)C1O` (stereo unspecified): the TGI in the assay on BT-549 breast is 0.339 µM; with SR leukemia, over 100 µM; with MDA-N, 1.11 µM.

Turning to `CCOC(=O)c1ccc(N(CCOS(C)(=O)=O)CCOS(C)(=O)=O)cc1`, the TGI in the assay on BT-549 breast and in the assay with MDA-N was over 100 µM in each case.

For the molecule `Oc1c(Br)cc2c(c1Br)-c1c(c(O)c3c4c1=NCCC=4C=N3)NCC2`, the TGI with SNB-78 CNS was 13.4 µM; with SN12K1 renal it was 17.4 µM; in the assay with DLD-1 colon it was 25 µM; in the assay with P388/ADR leukemia it was 43.2 µM; in the assay on HOP-18 NSCLC, 35.6 µM; in the assay on M19-MEL melanoma, 8.82 µM.

`O=c1cc(-c2cccc(OC(F)(F)F)c2)[nH]c2ccc(N3CCCC3)cc12`: the TGI in the assay with SR leukemia is under 0.0001 µM.

Regarding `Cc1c2cc[n+](Cc3ccc(I)cc3)cc2c(C)c2c1[nH]c1ccccc12`, the TGI in the assay with SNB-78 CNS was over 25 µM; in the assay with SN12K1 renal it was 5.92 µM; in the assay with DLD-1 colon it was over 25 µM; in the assay with P388/ADR leukemia, over 25 µM; in the assay on HOP-18 NSCLC, over 13.2 µM; with M19-MEL melanoma, 1.49 µM.

For the molecule `[CH3][Sn]([CH3])([CH3])[S]C(=S)N1CCOCC1`, the GI50 in the assay with SNB-78 CNS was 9.94 µM; with SN12K1 renal, 1.12 µM; with DLD-1 colon it was 0.162 µM; with P388/ADR leukemia, 0.136 µM; with HOP-18 NSCLC, 3.85 µM; in the assay on M19-MEL melanoma, 0.73 µM. Also, the TGI in the assay on SNB-78 CNS was over 100 µM; in the assay on SN12K1 renal, 12.1 µM; in the assay with DLD-1 colon, 5.54 µM; in the assay on P388/ADR leukemia, 0.902 µM; in the assay on HOP-18 NSCLC, over 100 µM; in the assay on M19-MEL melanoma, 31.7 µM.

For `O=C(Nc1cccc(-n2ccc3c(NC(=O)c4ccccc4)ncnc32)c1)Nc1ccc(Cl)c(C(F)(F)F)c1`, in the assay on SR leukemia, the GI50 was 2.35 µM and the TGI was found to be 15 µM.
